Source: patent US20030040486A1 (priority 2001, published 2003)

Columns and labels:
male Sprague-Dawley rats [1] = experiment: Development of tolerance in the rat HWL study (thermal and mechanical stimulation); format: in vivo; details: for time to complete tolerance: intrathecal every 12 hrs, both hindpaws, thermal and mechanical HWL
male Sprague-Dawley rats [2] = experiment: Rat hindpaw withdrawal latency (HWL) to thermal stimulation, hot-plate test; format: in vivo; details: for HWL increase using thermal stimulation: drug alone, intrathecal, FIGS. 2A and 2B; for % Changes of HWL to Thermal Stimulation: intrathecal every 12 hrs: morphine 8 μg, nociceptin 10 nmol, or rotated every two days
male Sprague-Dawley rats [3] = experiment: Rat hindpaw withdrawal latency (HWL) to mechanical stimulation, Randall Selitto Test; format: in vivo; details: for HWL increase using mechanical stimulation: drug alone, intrathecal, FIGS. 2C and 2D; for % Changes of HWL to Mechanical Stimulation: intrathecal every 12 hrs: morphine 8 μg, nociceptin 10 nmol, or rotated every two days
[4] = intrathecal administration; Jhamandas et al. 1998; cited from earlier work
μ-opioid receptors = details: Hao et al. 1997; cited from earlier work

## CN1CC[C@]23c4c5ccc(O)c4O[C@H]2[C@@H](O)C=C[C@H]3[C@H]1C5 [Morphine, morphine]
Male Sprague-Dawley rats [1]
  time to complete tolerance: 6 days
Male Sprague-Dawley rats [2]; day 1
  HWL increase using thermal stimulation: approximately 67%
Male Sprague-Dawley rats [3]; day 1
  HWL increase using mechanical stimulation: ~55%

## CC(C)C[C@H](NC(=O)[C@H](CCCCN)NC(=O)[C@H](CCCN=C(N)N)NC(=O)[C@H](C)NC(=O)[C@H](CO)NC(=O)[C@H](CCCCN)NC(=O)[C@H](CCCN=C(N)N)NC(=O)[C@H](C)NC(=O)CNC(=O)[C@@H](NC(=O)[C@H](Cc1ccccc1)NC(=O)CNC(=O)CNC(=O)[C@@H](N)Cc1ccccc1)[C@@H](C)O)C(=O)N[C@@H](C)C(=O)N[C@@H](CC(N)=O)C(=O)N[C@@H](CCC(N)=O)C(=O)O [Nociceptin, nociceptin]
Male Sprague-Dawley rats [1]; by day 2, nociceptin alone group
  tolerance developed: 50%
Male Sprague-Dawley rats [1]
  time to complete tolerance: 4 days
Male Sprague-Dawley rats [2]; day 1
  HWL increase using thermal stimulation: approximately 90%
Male Sprague-Dawley rats [2]; day 1, left hindpaw
  % Changes of HWL to Thermal Stimulation: 93.49 ± 3.77%
Male Sprague-Dawley rats [2]; day 1, right hindpaw
  % Changes of HWL to Thermal Stimulation: 90.42 ± 2.65%
Male Sprague-Dawley rats [2]; day 2, left hindpaw
  % Changes of HWL to Thermal Stimulation: 39.91 ± 3.66%
Male Sprague-Dawley rats [2]; day 2, right hindpaw
  % Changes of HWL to Thermal Stimulation: 43.02 ± 2.12%
Male Sprague-Dawley rats [2]; day 3, left hindpaw
  % Changes of HWL to Thermal Stimulation: 9.46 ± 2.31%
Male Sprague-Dawley rats [2]; day 3, right hindpaw
  % Changes of HWL to Thermal Stimulation: 12.01 ± 1.48%
Male Sprague-Dawley rats [2]; day 4, left hindpaw
  % Changes of HWL to Thermal Stimulation: −2.18 ± 2.07%
Male Sprague-Dawley rats [2]; day 4, right hindpaw
  % Changes of HWL to Thermal Stimulation: −3.67 ± 1.61%
[4]
  duration of the antinociceptive response evoked by intrathecal deltorphin: increase the duration
Male Sprague-Dawley rats [3]; day 1
  HWL increase using mechanical stimulation: 60-70%
Male Sprague-Dawley rats [3]; day 1, left hindpaw
  % Changes of HWL to Mechanical Stimulation: 69.90 ± 4.11%
Male Sprague-Dawley rats [3]; day 1, right hindpaw
  % Changes of HWL to Mechanical Stimulation: 61.26 ± 3.85%
Male Sprague-Dawley rats [3]; day 2, left hindpaw
  % Changes of HWL to Mechanical Stimulation: 31.28 ± 5.03%
Male Sprague-Dawley rats [3]; day 2, right hindpaw
  % Changes of HWL to Mechanical Stimulation: 30.79 ± 6.58%
Male Sprague-Dawley rats [3]; day 3, left hindpaw
  % Changes of HWL to Mechanical Stimulation: 10.59 ± 0.93%
Male Sprague-Dawley rats [3]; day 3, right hindpaw
  % Changes of HWL to Mechanical Stimulation: 10.08 ± 1.05%
Male Sprague-Dawley rats [3]; day 4, left hindpaw
  % Changes of HWL to Mechanical Stimulation: −0.62 ± 1.45%
Male Sprague-Dawley rats [3]; day 4, right hindpaw
  % Changes of HWL to Mechanical Stimulation: −0.76 ± 2.32%
μ-opioid receptors
  binding to μ-opioid receptors: does not bind
